Data from patent US20250136607A1 (REGOR PHARMACEUTICALS, INC., priority 2021, published 2025).
Read-outs that look alike come from different tables or passages of the source.

System: Citrullinated Histone H3 in dHL-60 cells (differentiated HL-60)
Assay: dHL-60 Cit-H3 ELISA assay
Assay type: cell-based, human
Conditions: read-out: Average IC50 Abs
Method in brief: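 HL-60 cells differentiated 72 h with DMF, plated at 1×10^5/well, pretreated 30 min with compound (8-point 3-fold series, 0.2% DMSO), then stimulated 3 h at 37 °C with 25 μM A23187 plus S7 nuclease. Supernatant citrullinated H3 quantified by HRP ELISA at 450 nm; IC50 by four-parameter fit.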

[1] = Homo sapiens, HL-60, 3 h, stimulation with 25 μM A23187 for 3 h
[2] = stimulation with 25 μM A23187 for 3 h

Row | IC50 [1] | IC50 [2] | SMILES | other results
1 | 100 to 500 nM | – | C#CCn1c(-c2cc3cccc4c3n2C(CC)CN4CCCO)nc2cc(C(=O)N3C[C@H](N)C[C@@H](F)C3)cc(OC)c21 (stereo partly drawn) [Example 95, ((3R,5R)-3-amino-5-fluoropiperidin-1-yl)(2-(3-ethyl-1-(3-hydroxypropyl)-2,3-dihydro-1H-pyrrolo[1,2,3-de]quinoxalin-5-yl)-7-methoxy-1-(prop-2-yn-1-yl)-1H-benzo[d]imidazol-5-yl)methanone] | –
2 | – | 500 to 5000 nM | CCC1CN(CCCO)c2cccc3cc(-c4nc5cc(C(=O)N6C[C@H]7CC[C@@H]6[C@@H]7N)cc(OC)c5n4C)n1c23 (single isomer, unassigned) [Example 86] | –
3 | – | ≤ 100 nM | CCC1CN(CCCO)c2cccc3cc(-c4nc5cc(C(=O)N6C[C@H](N)C[C@@H](F)C6)cc(OC)c5n4C)n1c23 (single isomer, unassigned) [Example 82] | –
4 | – | ≤ 100 nM | CCC1CN(CCCO)c2cccc3cc(-c4nc5cc(C(=O)N6C[C@H]7CC[C@@H]6[C@@H]7N)cc(OC)c5n4C)n1c23 (single isomer, unassigned) [Example 87] | –
5 | 100 to 500 nM | – | CCC1CN(CCCO)c2cccc3cc(-c4nc5cc(C(=O)N6C[C@H](N)C[C@@H](F)C6)cc(F)c5n4C)n1c23 (stereo partly drawn) [Example 75, ((3R,5R)-3-amino-5-fluoropiperidin-1-yl)(2-(3-ethyl-1-(3-hydroxypropyl)-2,3-dihydro-1H-pyrrolo[1,2,3-de]quinoxalin-5-yl)-7-fluoro-1-methyl-1H-benzo[d]imidazol-5-yl)methanone] | –
6 | – | – | CCC1CN(CCCO)c2cccc3cc(-c4nc5cc(C(=O)N6C[C@H]7CC[C@@H]6[C@@H]7N)cc(F)c5n4CC)n1c23 (stereo partly drawn) [Example 96, ((1R,4R,7R)-7-amino-2-azabicyclo[2.2.1]heptan-2-yl)(1-ethyl-2-(3-ethyl-1-(3-hydroxypropyl)-2,3-dihydro-1H-pyrrolo[1,2,3-de]quinoxalin-5-yl)-7-fluoro-1H-benzo[d]imidazol-5-yl)methanone] | IC50 (Homo sapiens, HL-60, stimulation with 25 μM A23187 for 3 h): ≤ 100 nM
